Consider 5 compounds from patent US10071965B2, “Pyridone FabI inhibitors and uses thereof” (priority 2015, dated 2018).

In brackets after ≈: the same amount, converted by molar mass. Where two headings read alike, the source gives them in different places. Marks after values point to notes of the source that are not given here. Where only a bound is given, the exact number is not on record here.

The target of data set [1] is T1, saFabI (Staphylococcus aureus (strain MRSA252), UniProt Q6GI75). The experiment in a line: saFabI inhibition kinetics. The format is biochemical.
For data set [2], the system named is B. pseudomallei Bp400. The experiment in a line: microbe, parasite or virus in culture. It counts as cell-based. The settings on record: Burkholderia pseudomallei.
For data set [3], the system named is F. tularensis LVS. The experiment in a line: microbe, parasite or virus in culture. The format is cell-based. As to conditions: Francisella tularensis; for MIC: read-out: MIC (μm), F. tularensis LVS, Table 3; for inhibition at 5 µg/mL: read-out: Francisella tularensis LVS, % inhib.
The target in data set [4] is M. tuberculosis enoyl-ACP reductase InhA (Mycobacterium tuberculosis (strain ATCC 25618 / H37Rv), UniProt P9WGR1). Description: InhA inhibition kinetics. It counts as biochemical.
For data set [5], the target named is T1, saFabI. The experiment in a line: Jump dilution assay with saFabI. It counts as biochemical. The settings on record: preincubation with NADPH and saFabI.
Data set [6] relates to E. coli MG1655. The experiment in a line: MIC microbroth dilution, E. coli MG1655 with intact AcrAB efflux pump. The format is cell-based, Escherichia coli. As to conditions: for MIC: Escherichia coli. In general terms: In broth dilution the organism is exposed to a series of concentrations in liquid medium.
In data set [7] the test system is P. mirabilis ATCC35659. Description: MIC microbroth dilution, P. mirabilis ATCC35659. The settings on record: Proteus mirabilis. It counts as cell-based.
Data set [8] has as its system E. coli MG1655 ΔacrAB. The experiment in a line: microbe, parasite or virus in culture. The format is cell-based, Escherichia coli. As to conditions: for MIC: Escherichia coli.
Data set [9] deals with S. aureus RN4220. The experiment in a line: MIC microbroth dilution, S. aureus RN4220. The format is cell-based, Staphylococcus aureus. The settings on record: Staphylococcus aureus.
Data set [10] deals with M. tuberculosis H37Rv. Description: MIC microbroth dilution, M. tuberculosis H37Rv. The format is cell-based. As to conditions: Mycobacterium tuberculosis.
The test system of data set [11] is F. tularensis LVS. The settings on record: data according to Ref. 69; cited from earlier work.
For data set [12], the system named is B. pseudomallei Bp400. As to conditions: B. pseudomallei Bp400, data according to Ref. 69; cited from earlier work.
Data set [13] concerns the target bpFabV (Burkholderia pseudomallei, UniProt Q63TE9). It counts as biochemical. As to conditions: read-out: Burkholderia pseudomallei IC50 (μM), bpFabV.
In data set [14] the target is Francisella tularensis FabI (Francisella tularensis subsp. tularensis (strain SCHU S4 / Schu 4), UniProt Q5NGQ3). Description: biochemical.
The subject of data set [15] is Bt38. Description: microbe, parasite or virus in culture. It counts as cell-based. As to conditions: Burkholderia pseudomallei, read-out: Bt38, % inhib.
In data set [16] the target is YpFabV (Yersinia pestis, UniProt Q8Z9U1). Description: biochemical.
In data set [17] the target is bpFabI (Burkholderia pseudomallei, UniProt A0A0H3HP34). The experiment in a line: biochemical.
Data set [18] relates to Yersinia pestis. Description: microbe, parasite or virus in culture. The format is cell-based. The settings on record: read-out: Yersinia pestis, % inhib.
Data set [19] concerns PT166-resistant S. aureus RN4220 mutants. Description: microbe, parasite or virus in culture. It counts as cell-based. As to conditions: Staphylococcus aureus.
Data set [20] in a line: in vivo. The settings on record: female, ICR, mouse, ip, 100 mg/kg.
In data set [21] the target is ecFabI (Escherichia coli (strain K12), UniProt P0AEK4). The experiment in a line: ecFabI inhibition kinetics. It counts as biochemical. As to conditions: Ki^app (nM), [S]/KS = 0.19.
Data set [22] relates to MRSA strain BAA1762. Description: Neutropenic mouse thigh infection model. As to conditions: 100 mg/kg dose, MRSA BAA1762, neutropenic mouse. The format is in vivo, Swiss Webster mice.
[23] abbreviates: E. coli MG1655, Table 3, read-out: MIC (μm).
[24] abbreviates: RN4220, S. aureus RN4220, Table 3, read-out: MIC (μm).
[25] abbreviates: RN4220, S. aureus RN4220, read-out: MIC.
Where [26] appears, read: M. tuberculosis H37Rv, Table 3, read-out: MIC (μm).
[27] abbreviates: H37RV, 4-pyridones table, read-out: Mycobacterium tuberculosis MIC (μg/mL) H37Rv.

On to `Cc1c(N)cccc1Cn1ccc(OCCc2cccs2)cc1=O` [CG400549, reference compound], for which the “affinity improvement for saFabI” value in data set [1] (relative to PT173) turned out to be 1.5 fold. Moreover, the MIC in data set [2] (BP400, read-out: MIC (μm)) was 376 µM; in data set [3], 5.9 µM (≈ 2.01 µg/mL); in data set [6] (setting [23]), above 375 µM; in data set [7] (P. mirabilis ATCC35659, read-out: MIC (μm)) it was above 750 µM; in [8] (MG1655) it was above 375 µM; in data set [8] (MG1655, read-out: MIC (μm)) it was above 375 µM. The MIC in [9] (setting [24]) is 5.9 µM; in data set [9] (setting [25]) it was 5.9 µM; in data set [10] (setting [26]) it was above 300 µM. The same compound registered a Ki in [4] of 582 nM. Besides, the “off kinetics in jump dilution curve” value in [5] is given as “rapid off kinetics”. For the same compound, in data set [6] (E. coli versus S. aureus, Table 3), the lower antibacterial activity is reported as above 64 fold.
Take `CCc1ccc(Oc2ccccc2)c(O)c1` [PT01, 5-ethyl-2-phenoxyphenol]: the figures for the “MIC (μM)” value in data set [11] and in [12] were 0.1^c μM and 326.7^c μM, respectively. Also, the MIC turned out to be 18.7 µM in [6] (setting [23]); 0.6 µM (≈ 0.129 µg/mL) in data set [8] (MG1655); 0.6 µM (≈ 0.129 µg/mL) in data set [8] (MG1655, read-out: MIC (μm)); 2.3 µM in data set [9] (setting [24]); 2.3 µM in data set [9] (setting [25]); 72.9 µM in data set [10] (setting [26]).
With `CCCCCCc1cc(=O)c(Oc2ccc(N)cc2C)cn1C` [PT155], the IC50 (as a rule, the concentration at which inhibition is half-maximal) was 3 ± 0.6 µM in data set [13]; 53 nM in data set [14]; 107 nM in [4]; above 50000 nM in data set [16]; 140 nM in data set [17]. Further, the inhibition at 5 µg/mL in data set [3] amounted to 91%. Also, the inhibition at 20 µg/mL in data set [15] worked out at 90%. In addition, in data set [18], the inhibition at 40 µg/mL was found to be 26%. The MIC in [10] (setting [27]) was determined as 6.25 µg/mL.
For `CCCCCCc1cc(=O)c(Oc2ccc([N+](=O)[O-])cc2)cn1C` [PT156], the IC50 in data set [13] turned out to be 0.56 ± 0.1 µM; in data set [4], 407 nM; in data set [16], 180 nM; in [17], 960 ± 100 nM. Moreover, the inhibition at 5 µg/mL in data set [3] amounted to 88%. Besides, the inhibition at 40 µg/mL in data set [15] was determined as 43%; in data set [18] it was 29%. In data set [10] (setting [27]), the MIC turned out to be 50 µg/mL.
In the case of `CCCCCCc1cc(=O)c(Oc2ccccc2C)cn1C` [PT166], the MIC in data set [19] (read-out: MIC μm, strain 166R.1, FabI A95V) is 8.8 µM (≈ 2.63 µg/mL); in [19] (read-out: MIC μm, strain 166R.2, FabI A95V) it was 8.8 µM (≈ 2.63 µg/mL); in [19] (read-out: MIC μm, strain 166R.3, FabI A95V and F252L) it was 8.8 µM (≈ 2.63 µg/mL); in [19] (read-out: MIC μm, strain 166R.4, FabI A95V and E71D) it was 8.8 µM (≈ 2.63 µg/mL); in data set [19] (read-out: MIC μm, strain 166R.5, no change in fabI), 17.6 µM (≈ 5.27 µg/mL); in [2] (BP400, read-out: Burkholderia pseudomallei MIC (μg/mL) Bp400) it was 64 µg/mL. Moreover, the MIC is 214 µM in data set [2] (BP400, read-out: MIC (μm)); 0.4 µM (≈ 0.12 µg/mL) in data set [3]; above 128 µg/mL in data set [6] (MG1655, 4-pyridones table, in brackets, read-out: MIC for MG1655 with intact efflux pump); above 425 µM in [6] (MG1655, Table 2 footnote e, read-out: MIC against E. coli MG1655 with the intact AcrAB efflux pump); 214 µM (≈ 64 µg/mL) in data set [7] (ATCC35659, read-out: MIC (μm)); 6.7 µM (≈ 2.01 µg/mL) in data set [8] (MG1655). In addition, the MIC in [8] (MG1655, read-out: MIC (μm)) came to 6.7 µM (≈ 2.01 µg/mL); in data set [9] (RN4220, 4-pyridones table, read-out: Staphylococcus aureus MIC (μg/mL) RN4220) it was 0.24 µg/mL; in data set [9] (setting [24]), 0.8 µM; in [9] (setting [25]), 0.8 µM; in data set [9] (RN4220, strain RN4220 (parent), Table 4, read-out: MIC μm), 0.8 µM; in [9] (RN4220, text, read-out: MIC against Staphylococcus aureus strain RN4220), 0.24 µg/mL. The MIC in data set [10] (setting [27]) was found to be 3.13 µg/mL; in data set [10] (H37RV, M. tuberculosis, read-out: MIC, in vitro anti-mycobacterial activity) it was 10.5 µM; in [10] (setting [26]), 10.5 µM. Further, the 50% inhibitory concentration (IC50) in data set [14] amounted to 24 nM; in data set [4], 28.6 nM. Moreover, the Ki in data set [1] (Ki (nM), saFabI) was found to be 2.7 ± 0.6 nM; in data set [1] (Ki, saFabI), 2.7 nM; in data set [1] (Ki^app (nM), saFabI, [S]/KS = 2), 10.1 ± 2.1 nM; in data set [1] (Staphylococcus aureus Ki (nM), 4-pyridones table), 2.7 nM; in data set [4] it was 22 nM; in data set [21] it was 8.5 ± 0.2 nM. In [20], the area under the curve AUC(0-t) – broadly, exposure summed from dosing to a finite time, without extrapolation to infinity – was found to be 53000 ng·h/mL. Further, the highest level in data set [20] (Cmax) was 45900 ng/mL. Also, the Tmax (usually the time from dosing to the highest level) in [20] came out at 0.25 h. Also, in data set [20], the half-life – broadly, the time needed for the level to fall by half in the phase considered – is 2.7 h. The “Escherichia coli MIC (μg/mL) MG1655 ΔacrAB” value in data set [8] (4-pyridones table) turned out to be 2 µg/mL. For the same compound, in data set [8] (relative to CG400549), the “lower MIC against E. coli MG1655 lacking AcrAB” value is on record as above 50 fold. The “decrease of bacterial burden in the infected thigh” value in data set [22] is recorded as 2.8 log cfu/g tissue.
